Counter-ions that a name gives are not always drawn.
Legend:
Humanakrosin [1] = biological target: T1, Humanakrosin (Homo sapiens, UniProt P10323); test: Acrosin (human) assay: inhibition of isolated human acrosin; assay type: biochemical; conditions: Substrat: Benzoyl-L-arginyleth.-ester; read-out: I50
T1 construct: endogenous in cells; host or cells: intact human spermatozoa (Humansperma)
Excerpt: Dieser Test stellt das eigentliche Primärscreening dar. Er gibt einen Anhaltspunkt über die inhibitorische Effektivität einer Verbindung am Enzym (Humanakrosin) selbst, erlaubt aber noch keine Aussage über die biologische Effektivität (d.h. Hemmung von Akrosin im intakten Spermium sowie kontrazeptive Wirksamkeit) der untersuchten Verbindungen.
Das durch eine saure Extraktion aus Humansperma gewonnene Enzym Akrosin wird mit verschiedenen Konzentrationen des potentiellen Inhibitors inkubiert, und es wird diejenige Konzentration bestimmt, die zu einer 50 %igen Hemmung der Akrosinaktivität führt. Die […] Akrosin spaltet physiologischerweise bevorzugt Arginin- und Lysin-Gruppen. Deshalb wird für die in vitro-Untersuchung zur Aktivitätsbestimmung von Akrosin ein Benzoyl-Arginin-Äthylester als Substrat verwendet.

Humanakrosin [2] = biological target: T1, Humanakrosin; test: Gelatinolysis test: acrosin inhibition in intact human spermatozoa (halo formation, semiquantitative); assay type: cell-based; conditions: Humansperma preincubated with inhibitor
Excerpt: Dieser Test ist ebenfalls als Bestandteil des Primärscreenings anzusehen. Für die erwünschte kontrazeptive Wirkung eines Akrosininhibitors ist es - neben der eigentlichen Akrosinhemmung am isolierten Enzym - von essentieller Bedeutung, daß ein solcher Inhibitor in der Lage ist, das Plasmalemm und die äußere akrosomale Membran eines intakten Spermiums zu durchdringen, da Akrosin an der inneren akrosomalen Membran lokalisiert ist.
Als besonders geeignet für die Untersuchung dieser speziellen Fragestellung hat sich das Gelatinolyse-Modell nach P. Gaddum und R.Z. Blandau (Science 170: 749 - 751), modifiziert nach W.B. Schill (Int. J. Andrology 4: 25 - 38) und nach eigenen Ausarbeitungen erwiesen. Bei dieser Methode wird mit unbelichteten, fixierten und mit Methylenblau gefärbten Filmplatten für die Autoradiographie gearbeitet, deren Gelatineschicht durch die lytische Aktivität von Akrosin aufgelöst wird. Als Folge bilden sich um die Spermienköpfe gut sichtbare, weite Höfe (sog. Halo-Bildung/ Lysishof). Bei einer Hemmung von Akrosin unterbleibt die Ausbildung dieser Höfe.
Um die Penetrierfähigkeit eines erwiesenen Akrosininhibitors und damit die Hemmung von Akrosin am intakten Spermium zu untersuchen, wird Humansperma mit mehreren Konzentrationen des Inhibitors präinkubiert. […]

Maussperma = test: In vitro fertilisation (mouse); assay type: cell-based, Maus; conditions: for % Fertilisation: after 24 h; for Anzahl 2-Zellen-Embryos: counted after 24 h
Excerpt: Dieser Test erlaubt eine erste Überprüfung der kontrazeptiven Effektivität sowie eine Überprüfung des Wirkprinzips per se:
In einem Mediumtropfen nach Brinster, Whitten und Whittingham, der den Inhibitor enthält, werden zunächst die durch Superovulation gewonnenen Oocyten überführt. Anschließend wird ein Aliquot des unbehandelten Maussperma hinzupipettiert. Die Konzentrationen des Inhibitors werden so gewählt, daß keine Hemmung der Motilität vorliegt. 24 Stunden später wird die Anzahl der geteilten und nicht geteilten Oocyten und damit die Fertilitätsrate bestimmt.
Es wird also überprüft, ob der zu untersuchende Akrosininhibitor, appliziert in einem System, in dem es zum unmittelbaren Kontakt zwischen Oocyte und Spermium kommt, eine Fertilisation hemmen kann - ohne daß eine Hemmung der Motilität der Spermien vorliegt.

Kaninchen = test: In vivo fertilisation (rabbit) after artificial insemination of preincubated sperm; conditions: sperm preincubated with 500 µg/ml, 36 h after insemination; for % geteilt: fertility rate; for geteilt: number of divided oocytes; for nicht geteilt: number of undivided oocytes
Excerpt: Dieser Test ermöglicht Aussagen zur kontrazeptiven Effektivität unter in-vivo-Bedingungen:
Kaninchensperma, das mit Hilfe einer künstlichen Vagina gewonnen wird, wird mit dem zu untersuchenden Akrosininhibitor präinkubiert. Anschließend werden zur Induktion einer Superovulation mit PMS (pregnant mare serum) vorbehandelte Kaninchenweibchen mit dem vorbehandelten Sperma artifiziell inseminiert. Zur Auslösung der […] erhalten sie abschließend HCG (human chorionic gonadotropin).
36 Stunden später werden die Tiere getötet, die Ovidukte und Uteri entnommen und gespült, um die frühen Embryonen bzw. ungeteilten Oocyten zu gewinnen und anhand deren Anzahl die Fertilisationsrate zu bestimmen.

T1 sequence (P10323 20-421): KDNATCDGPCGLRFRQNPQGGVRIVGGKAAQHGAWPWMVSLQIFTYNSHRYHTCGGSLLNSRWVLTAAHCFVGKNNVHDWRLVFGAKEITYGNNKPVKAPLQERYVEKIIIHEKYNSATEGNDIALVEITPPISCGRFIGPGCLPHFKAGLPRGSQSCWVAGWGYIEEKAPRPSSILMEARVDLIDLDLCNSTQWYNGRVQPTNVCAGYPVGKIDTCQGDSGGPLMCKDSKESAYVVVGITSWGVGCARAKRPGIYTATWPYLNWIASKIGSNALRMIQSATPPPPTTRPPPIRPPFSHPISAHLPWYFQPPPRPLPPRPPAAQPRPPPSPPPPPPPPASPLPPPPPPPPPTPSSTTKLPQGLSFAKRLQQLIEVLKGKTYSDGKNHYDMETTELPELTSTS

Row | SMILES | IC50 (Humanakrosin [1]) [nM] | Gelatinolyse: Hemmung der Akrosinaktivität (Humanakrosin [2]; 1 µg/ml) | Gelatinolyse: Hemmung der Akrosinaktivität (Humanakrosin [2]; 10 µg/ml) | % Fertilisation (Maussperma; 5 ug/ml) [%] | Anzahl 2-Zellen-Embryos (Maussperma; 5 ug/ml) | % geteilt (Kaninchen) [%] | geteilt (Kaninchen) | nicht geteilt (Kaninchen) | % Fertilisation (Maussperma; 50 ug/ml) [%] | Anzahl 2-Zellen-Embryos (Maussperma; 50 ug/ml)
1 | COC(=O)c1cccc(OC(=O)c2ccc(NC(=N)N)cc2)c1 [Verbindung 5, 4-Guanidinobenzoesäure-(3-methoxycarbonylphenyl)-ester Hydrochlorid] | 550 | – | – | – | – | – | – | – | – | –
2 | N=C(N)Nc1ccc(C(=O)Oc2cccc(C(N)=O)c2)cc1 [Verbindung 6, 4-Guanidinobenzoesäure-(3-carbamoylphenyl)-ester Hydrochlorid] | 320 | – | – | – | – | – | – | – | – | –

The next lines start with results.

Row | IC50 (Humanakrosin [1]) [nM] | Gelatinolyse: Hemmung der Akrosinaktivität (Humanakrosin [2]; 1 µg/ml) | Gelatinolyse: Hemmung der Akrosinaktivität (Humanakrosin [2]; 10 µg/ml) | SMILES | % Fertilisation (Maussperma; 5 ug/ml) [%] | Anzahl 2-Zellen-Embryos (Maussperma; 5 ug/ml) | % geteilt (Kaninchen) [%] | geteilt (Kaninchen) | nicht geteilt (Kaninchen) | % Fertilisation (Maussperma; 50 ug/ml) [%] | Anzahl 2-Zellen-Embryos (Maussperma; 50 ug/ml)
3 | 733 | ++ bis +++ | + bis ++ | COC(=O)c1ccccc1OC(=O)c1ccc(NC(=N)N)cc1 [Verbindung 1, 4-Guanidinobenzoesäure-(2-methoxycarbonylphenyl)-ester Hydrochlorid, reference compound] | 78 | 195 | 51 | 88 | 83 | – | –
4 | 40 | – | – | N#Cc1ccccc1OC(=O)c1ccc(NC(=N)N)cc1 [Verbindung 2, 4-Guanidinobenzoesäure-(2-cyanophenyl)-ester Hydrochlorid] | 59 | 134 | 1 | 2 | 158 | 7 | 22
5 | 200 | – | – | CCOC(=O)c1cccc(OC(=O)c2ccc(NC(=N)N)cc2)c1 [Verbindung 3, 4-Guanidinobenzoesäure-(3-ethoxycarbonylphenyl)-ester Hydrochlorid] | – | – | 1 | – | – | – | –

From patent EP0170180A1, “Substituted guanidinobenzoic-acid phenyl esters, process for their production and their use as pharmaceutical preparations” (SCHERING AKTIENGESELLSCHAFT, priority 1984, dated 1986)
